Laboratory results reported in patent publication US20230144436A1, “MUSCLE TARGETING COMPLEXES AND USES THEREOF FOR TREATING MYOTONIC DYSTROPHY” (Dyne Therapeutics, Inc., priority 2020, published 2023).

Test system: DMPK
Test: DMPK knockdown by transfected antisense oligonucleotides in DM1 C15 myotubes at 0.5 nM and 50 nM
Type: cell-based
Conditions: 72 hours, qPCR; for Percent DMPK Reduction: relative to vehicle control; for Normalized DMPK Remaining: relative to vehicle control = 1.00
Experimental: Two hundred and thirty-six oligonucleotides for targeting DMPK were generated using in silico analysis. Each individual oligonucleotide was evaluated for their ability to target DMPK in cellulo at two doses—0.5 nM (low dose) and 50 nM (high dose).
Briefly, DM1 C15 immortalized myoblasts were cultured in T-75 flasks until near confluency (˜80% confluent). Myoblasts were then disrupted with trypsin and seeded into 96-well microplates at a density of 50,000 cells/well. Cells were allowed to recover overnight before the growth media was washed out and replaced with a no-serum media to induce differentiation into myotubes. Differentiation proceeded for seven days prior to treatment with DMPK-targeting oligonucleotides.
On day seven following induction of differentiation, DM1 C15 myotubes were transfected with an individual oligonucleotide using 0.3 μL of Lipofectamine MessengerMax per well. All oligonucleotides were tested at both 0.5 nM and 50 nM final concentrations in biological triplicates. After treatment with oligonucleotides, cells were incubated for 72 hours prior to being harvested for total RNA. cDNA was synthesized from the total RNA extracts and qPCR was performed to determine expression levels of DMPK in technical quadruplicate. All qPCR data were analyzed using a traditional […] method and were normalized to a plate-based negative control that comprised cells treated with vehicle control (0.3 μL/well Lipofectamine MessengerMax without any oligonucleotide). Results from these experiments are shown in Table 10. ‘Normalized DMPK Remaining’ for each antisense oligonucleotide in Table 10 refers to the expression level of DMPK in cell treated with said antisense oligonucleotide relative to the negative control that comprised cells treated with vehicle control (wherein the expression level of the negative control has been normalized to equal 1.00)

| Substance | Percent DMPK Reduction (0.5 nM oligonucleotide) | Normalized DMPK Remaining (0.5 nM oligonucleotide) | Percent DMPK Reduction (50 nM oligonucleotide) | Normalized DMPK Remaining (50 nM oligonucleotide) |
| --- | --- | --- | --- | --- |
| 353 (GGCGAAUACACCCAGCGCCC; chemistry not given here) [compound 353] | 19.77% | 0.80 | 68.72% | 0.31 |
| 354 (AGACAAUAAAUACCGAGGAA; chemistry not given here) [compound 354] | 29.37% | 0.71 | 48.20% | 0.52 |
| 355 (CCCGUCUGCUUCAUCUUCAC; chemistry not given here) [compound 355] | 20.31% | 0.80 | 43.97% | 0.56 |
| 356 (CUGCCUGCAGCAACUCCAUC; chemistry not given here) [compound 356] | 23.10% | 0.77 | 46.69% | 0.53 |
| 357 (CCUCAGCCUCUGCCGCAGGG; chemistry not given here) [compound 357] | 10.87% | 0.89 | 55.22% | 0.45 |
| 358 (GUGUCCGGAAGUCGCCUGCU; chemistry not given here) [compound 358] | 22.99% | 0.77 | 73.65% | 0.26 |
| 359 (UGCACGUGUGGCUCAAGCAG; chemistry not given here) [compound 359] | 10.81% | 0.89 | 64.18% | 0.36 |
| 360 (GACAAUAAAUACCGAGGAAU; chemistry not given here) [compound 360] | 28.97% | 0.71 | 47.51% | 0.52 |
| 361 (GCCAUGACAAUCUCCGCCAG; chemistry not given here) [compound 361] | 30.96% | 0.69 | 81.00% | 0.19 |
| 363 (CAUGACCAGGUACAGGUAGU; chemistry not given here) [compound 363] | 19.39% | 0.81 | 59.09% | 0.41 |
| 364 (AGCGCCCACCAGUCACACUC; chemistry not given here) [compound 364] | 30.36% | 0.70 | 63.67% | 0.36 |
| 365 (UCUCAGUGCAUCCAAAACGU; chemistry not given here) [compound 365] | 10.88% | 0.89 | 51.34% | 0.49 |
| 366 (UUUGGGCAGAUGGAGGGCCU; chemistry not given here) [compound 366] | 35.14% | 0.65 | 70.00% | 0.30 |
| 367 (GAUGUCCCUGUGCACGUAGC; chemistry not given here) [compound 367] | 18.99% | 0.81 | 62.46% | 0.38 |
| 368 (CAGCAGUGUCAGCAGGUCCC; chemistry not given here) [compound 368] | 25.67% | 0.74 | 51.97% | 0.48 |
| 369 (CAUGACAAUCUCCGCCAGGU; chemistry not given here) [compound 369] | 29.45% | 0.71 | 70.52% | 0.29 |
| 370 (ACUUGUUCAUGAUCUUCAUG; chemistry not given here) [compound 370] | 25.47% | 0.75 | 52.89% | 0.47 |
| 371 (GUGGAAUCCGCGUAGAAGGG; chemistry not given here) [compound 371] | 30.55% | 0.69 | 49.34% | 0.51 |
